Data reported in US20240382509A1, “Cannabinoids C- and O-glycosides possessing anti-proliferative and anti-metastatic properties and process for preparation thereof” (Council of Scientific and Industrial Research, priority 2021, published 2024).

Assays:
[1] = system: lung adenocarcinoma cells (A549); assay: MTT cell viability assay, A549; format: cell-based; conditions: Homo sapiens, A549, 48 h, read-out: Cytotoxicity (IC50) A549, MTT, 48 h
Procedure: (§1) Cell viability assay: The cell viability was determined by the standard MTT assay method. Briefly, Panc-1, HCT-116, A549, PC3, MIAPaca-2, HT-29, MDA-MB-231, MCF7 cells, and fR2cells were seeded in 96 well tissue culture plates (Nunc) at a density of 4×10^3 cells per well and treated with varying concentrations of the test compounds in triplicates. DMSO was taken as a vehicle, and its final concentration was maintained at 0.2% in the culture medium. Doxorubicin was employed as a positive control. After 44 h of incubation, MTT dye solution was added into the medium, and cells were incubated for another 4 h at 37° C. in 5% CO2. The amount of colored formazan derivatives formed was measured by taking optical density (OD) using a microplate reader (TECAN, Infinite M200 Pro) at 570 nm, and the percentage of cell viability was calculated. The IC50 values were calculated using GraphPad Prism software (Version 5.0).

[2] = system: MDA-MB-231 cells; assay: Matrigel invasion assay, MDA-MB-231; format: cell-based, human; conditions: MDA-MB231, 0.5 μM to 5 μM
Procedure: Matrigel invasion assay: MIAPaCa-2 and MDA-MB-231 cells (1×10^6) were seeded onto matrigel coated inserts and treated with compound 2a (0.5, 1.5, 3 & 5 μM) for 36 h in 5% CO2 incubator at 37° C. The upper chamber is filled with serum-free media, and the lower half consists of 10% FBS supplemented media, thus creating a gradient of chemoattractant that facilitates the migration of cells. Upon termination, the inserts were washed with PBS, and the non-migratory cells were removed from the upper chamber by using a cotton plug. Further, the cells were fixed with methanol and stained later with 0.2% crystal violet. After drying, the inserts were observed under an inverted microscope at 20× magnification, and images were taken.
(§2) Now to study its anti-migratory and anti-metastatic role in another highly metastatic cancer cells of breast origin (MDA-MB 231) the IC50 value was determined by performing MTT assay (FIG. 6a).

[3] = system: MDA-MB-231 cells; assay: In-situ gelatin degradation assay, MDA-MB-231; format: cell-based, human; conditions: MDA-MB-231, 1.5 μM to 5 μM
Procedure: (§3) Matrix gelatin degradation assay. In-situ gelatin degradation assay is performed to detect the formation of migratory structures (invadopodia & filopodia). Briefly, glass coverslips were coated with gelatin tagged with FITC, and the coated coverslips were dipped into 70% ethanol and immersed into a 6 well plate filled with RPMI and the coverslips were kept in a CO2 incubator for 1-2 h for preconditioning. Later on, both MIAPaCa-2 and MDA-MB-231 cells were seeded onto the coverslips and kept overnight for attachment. Treatment of the compound 2a (0.5, 1.5, 3 & 5 μM) was given on the next day and continued for 36 h. Upon termination, the coverslips were washed with ice-cold PBS, and then it was fixed in 4% paraformaldehyde for 15 min and then washed with PBS. Finally, the coverslips were mounted using mounting media consist of glycerol, and the edges were sealed with nail polish. After drying, the slides were observed under a fluorescence microscope to assess a degraded area's presence. The fluorescent images were captured, and the images were further processed in Image J software (Version 1.50i) to quantify the degraded area in each field.
as §2

[4] = system: MIAPaCa-2 cells; assay: MTT cell viability assay, MIAPaCa-2; format: cell-based, human; conditions: Homo sapiens, MIA PaCa-2, 48 h, read-out: Cytotoxicity (IC50) MIAPaCa-2, MTT, 48 h
Procedure: as §1

[5] = system: MIAPaCa-2 cells; assay: In-situ gelatin degradation assay, MIAPaCa-2; format: cell-based, human; conditions: MIAPaCa-2, from 0.5 μM onwards, 36 h
Procedure: as §3
(§4) Now this particular derivative was further analysed for its ability to inhibit the molecular signatures of EMT. […]

[6] = system: Snail-1, Twist-1, Vimentin and E-cadherin in MIAPaCa-2 cells; assay: Western blot of EMT markers; format: cell-based, human; conditions: 36 h, immunoblot
Procedure: Western Blot analysis. Briefly, MIAPaCa-2 cells were seeded in a 60 mm petri dish and maintained up to 70% confluency; afterward, the cells were treated with compound 2a (0.5, 1.5, 3 & 5 μM) for 36 h. After treatment, the cells were harvested washed thrice with ice-cold PBS and were subjected to protein lysis with lysis buffer (HEPES 1 mM/L, KCl 60 mM/L, NP-40 0.3%, EDTA 1 mM/L, DTT 1 mM/L, sodium orthovanadate 1 mM/L, PMSF 0.1 mM/L and cocktail protease inhibitor). The lysis product was centrifuged at 12000 rpm for 15 min at 4° C. to remove the cellular debris, and the supernatants were collected. Total protein was estimated with the help of the Bradford method. An equal amount of protein was subjected to SDS-PAGE, and consequently, after the protein was separated on SDS-PAGE based on their molecular weight, they were transferred onto the PVDF membrane. The membrane was blocked with 5% BSA and incubated in primary antibody prepared in 5% BSA (dilution ranging from 1:1000-1:2000) for 2-3 h. […] After washing with TBST, the protein expression was quantified by adding a chemiluminescent substrate on the membrane, and the signal obtained was captured in Biomax light x-ray films.
as §4

[7] = system: MCF-7 cells; assay: MTT cell viability assay, MCF-7; format: cell-based; conditions: Homo sapiens, MCF7, 48 h, read-out: Cytotoxicity (IC50) MCF-7, MTT, 48 h; breast cancer cell of epithelial origin
Procedure: as §1

[8] = system: HCT-116 cells; assay: MTT cell viability assay, HCT-116; format: cell-based; conditions: Homo sapiens, HCT-116, 48 h, read-out: Cytotoxicity (IC50) HCT-116, MTT, 48 h; colorectal adenocarcinoma cells
Procedure: as §1

[9] = system: MIAPaCa-2 cells; assay: Phase contrast microscopy of cell morphology; format: cell-based, human; conditions: MIAPaCa-2, 0.5 μM to 5 μM

CCCCCc1cc(O[C@@H]2OC(CO)[C@@H](O)C(O)C2O)c2c(c1)OC(C)(C)[C@@H]1CCC(C)=C[C@@H]21 (stereo partly drawn) [Compound 2a, Δ^9-tetrahydrocannabinol-1-O-β-D-glucopyranoside]
IC50 [1]: 1440 nM | migration in Matrigel coated invasion chamber [2]: periodical loss of migration | gelatin degradation [3]: significant decrease of gelatin degradation | IC50 [4]: 1420 nM | gelatin degraded area [5]: significant loss of gelatin degraded area | expression of Snail-1, Twist-1 and Vimentin ([6]; MIAPaCa-2, 0.5, 1.5, 3 and 5 μM): significant down modulation | expression of E-cadherin ([6]; MIAPaCa-2, from 1.5 to 5 μM): upregulated | IC50 [7]: 15400 nM | IC50 [8]: 2100 nM | mesenchymal (fibroblastic) morphology [9]: gradual loss of mesenchymal (fibroblastic) morphology
